Experimental data published in patent publication US20230037862A1, “SYNTHETIC AGONISTS OF TLR4 RECEPTOR” (UNIVERSITÀ DEGLO STUDI DI MILANO - BICOCCA, priority 2017, published 2023).
“Also recorded” adds a separate entry of the source.

Key:
[1] = target: T1, purified human MD-2 receptor (Homo sapiens, UniProt Q9Y6Y9); assay: MD-2-bound fluorescent molecule (bis-ANS) displacement assay; format: binding; conditions: MD-2 200 nM, bis-ANS 200 nM
T1 sequence (Q9Y6Y9 19-160): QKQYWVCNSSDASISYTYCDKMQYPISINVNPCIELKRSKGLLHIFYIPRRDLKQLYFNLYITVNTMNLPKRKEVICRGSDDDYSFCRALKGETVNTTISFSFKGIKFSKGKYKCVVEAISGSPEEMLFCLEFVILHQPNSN
Method: therefore, TLR4 modulators that interact with MD-2 compete with compound bis-ANS, and are able to displace it from MD-2.
Fluorescence was measured on PerkinElmer fluorimeter LS 55 (PerkinElmer, UK) as previously described^[5].
All measurements were done at 20° C. in a 5×5 mm quartz glass cuvette (Hellma Suprasil, Müllheim, Germany). MD-2 protein (200 nM) and 1,1′-Bis(anilino)-4,4′-bis (naphtalene)-8,8′ disulfonate (bis-ANS, 200 nM) were mixed and incubated until reaching stable relative fluorescence units (RFUs) emitted at 420-550 nm under excitation at 385 nm.
Compounds, at different concentrations, were then added, followed by relative fluorescence unit (RFU) measurement at 420-550 nm.

[2] = target: T1, purified human MD-2 receptor; assay: Anti-MD-2 antibody (9B4) competition, antibody-sandwich ELISA; format: binding
Method: The direct binding of molecules FP11 and FP111 to MD-2 was analyzed by using a monoclonal antibody binding MD-2, but not LPS-bound MD-2 (Viriyakosol, S., et al., Characterization of monoclonal antibodies to human soluble MD-2 protein. Hybridoma (Larchmt), 2006. 25(6): p. 349-57).
Anti-MD-2 monoclonal antibody (9B4) specifically binds an epitope near the MD-2 hydrophobic pocket, which is available for 9B4 antibody binding only when the MD-2 hydrophobic pocket is empty. Compound FP11 is accountable for a decrease of 9B4 antibody binding to MD-2 equal to 95% at a concentration of 20 μM (FIG. 3E).
The method of antibody-sandwich ELISA for the detection of the binding of compounds to MD-2 was modified from a previous study.
A microtiter plate was coated overnight at 4° C. with 100 μL/well of 5 μg/mL of chicken polyclonal anti-MD-2 antibodies, diluted in 50 mM Na2CO3 buffer, pH 9.6, and blocked with 1% BSA in PBS. After washing, 1 μM MD-2 with tested compounds was added and incubated for 2 h.
Mouse anti-MD-2 mAb (0.1 μg/mL 9B4) and goat antimouse IgG conjugated with HRP (0.1 μg/mL) in PBS were added, followed by detection at 420 nm after the addition of 100 μL of ABTS (Sigma).
Chicken anti-MD-2 polyclonal antibodies were prepared against recombinant MD-2 by GenTel (Madison, Wis., USA), monoclonal mouse anti-MD-9B4 antibodies were from eBioscience (San Diego, Calif., USA), and secondary goat antimouse IgG conjugated with horseradish peroxidase was from Santa Cruz Biotechnology (Santa Cruz, Calif., USA).

[3] = target: T1, purified human MD-2 receptor; assay: Surface plasmon resonance binding to MD-2
Method: Surface plasmon resonance (SPR) experiments enable the study of direct interactions between the molecules to be characterized and MD-2.
The binding affinity of the compounds to recombinant MD-2 was determined using a Biacore X100 with an NTA sensor chip (Biacore, GE Healthcare, Uppsala, Sweden). Briefly, 0.5 μM MD-2 (in 50 mM TRIS, 150 mM NaCl, 0.5% Tween 20, pH 7.5) was immobilized onto the sensor chip previously activated with 1 min pulse of 10 mM NiSO4. The first flow cell was used as a reference surface to control nonspecific binding.
Both flow cells were incubated with the analyte (in PBS, 5% DMSO, 5% EtOH, pH 7.5) at a flow rate of 10 μL/min at 25° C. at increasing concentrations. The data were analyzed with Biacore Evaluation software. KD values were calculated by global fitting of the equilibrium binding responses from various concentrations of analytes using a 1:1 Langmuir binding model.

CCCCCCCCCCCCCC(=O)NC1C(OC(=O)CCCCCCCCCCCCC)[C@H](OC(=O)CCCCCCCCCCCCC)C(CO)O[C@H]1OP(=O)(O)O (stereo partly drawn) [FP11, 1-O-Phosphoryl-2-deoxy-4-O-tetradecanoyl 3-O-tetradecanoyl-2-tetradecanoylamino-α-D-glucopiranoside]
decrease of bis-ANS fluorescence / inhibition of bis-ANS binding to MD-2 [1]: concentration-dependent decrease of compound bis-ANS fluorescence; also recorded: inhibits the binding of bis-ANS to MD-2 in a dose-dependent manner
decrease of 9B4 antibody binding to MD-2 ([2]; 20 μM): 95%
prevention of monoclonal antibody 9B4 binding to MD-2 ([2]; up to 20 μM): prevents the binding of monoclonal antibody to MD-2 in a dose-dependent manner
direct binding to MD-2 (SPR) [3]: directly binds the MD-2 hydrophobic pocket
Kd ([3]; SPR, 1:1 Langmuir binding model, 25° C.): 6.5 µM
